For 19 compounds, IC50 results are on record in patent US4895842A, “Phenylalanine derivative and proteinase inhibitor” (Shosuke Okamoto, priority 1985, dated 1990).

In one test the target is T1, bovine trypsin (Bos taurus, UniProt P00760).
T1 sequence (P00760 24-246): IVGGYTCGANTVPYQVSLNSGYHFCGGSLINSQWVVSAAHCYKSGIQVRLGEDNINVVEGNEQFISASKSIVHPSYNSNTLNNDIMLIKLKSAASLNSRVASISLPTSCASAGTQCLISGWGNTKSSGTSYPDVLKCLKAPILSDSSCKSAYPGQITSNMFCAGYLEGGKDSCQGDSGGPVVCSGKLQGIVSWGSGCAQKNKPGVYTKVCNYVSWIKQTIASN
In words: Antitrypsin activity: inhibition of S-2238 decomposition. The note with it: Table 2; S-2238 substrate, pH 8.1, 37° C.; read-out: Trypsin S-2238 (I50). Format: biochemical.

The target of test [1] is T2, bovine thrombin (Bos taurus, UniProt P00735). In words: Antithrombin activity: inhibition of fibrin formation from fibrinogen. Type of test: biochemical. The gist of the method:
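Inhibitor in 0.18M borate-saline buffer pH 7.4 mixed with 0.2% bovine fibrinogen and 4 unit/ml bovine thrombin (stock levels) at 37° C; clotting time measured. I50 is the inhibitor concentration doubling coagulation time versus uninhibited control.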

In test [2] the target is T3, human plasmin (Homo sapiens, UniProt P00747). In words: Antiplasmin activity: inhibition of fibrin decomposition. Format: biochemical. The following applies: Table 2; concentration at which fibrin dissolution time is extended twice, pH 7.4, 37° C.; read-out: Plasmin Fibrin (I50). The gist of the method:
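Inhibitor in 0.18 M borate–physiological saline buffer, pH 7.4, received bovine fibrinogen (0.2% solution), human plasmin (0.3 casein unit/ml solution) and bovine thrombin (50 unit/ml solution) at 37 °C. Time for the resulting fibrin clot to dissolve was recorded.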

Test [3] has as its target T2, bovine thrombin. In words: Antithrombin activity: inhibition of S-2238 decomposition. Format: biochemical. The gist of the method: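 Inhibitor in 0.05 M Tris-HCl, pH 8.3, preincubated with S-2238 (0.2 mM stock) for 5 min at 37 °C. Bovine thrombin (0.2 unit/ml stock) then added, and p-nitroaniline release followed at 405 nm by initial velocity at 37 °C. I50 is the concentration halving the rate.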

A further test deals with human urokinase (Homo sapiens, UniProt P00749). Put plainly: biochemical. The following applies: Table 2; S-2444 substrate, pH 8.8, 37° C.; read-out: Urokinase S-2444 (I50). The gist of the method:
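Inhibitor in 0.05M Tris-HCl pH 8.8 preincubated 5 min at 37° C with S-2444 (1 mM solution added), then human urokinase (500 unit/ml solution) added for 5 min at 37° C; stopped with 50% acetic acid. p-Nitroaniline read at 405 nm; I50 is concentration halving absorbance versus no inhibitor.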

Test [4] has as its target T3, human plasmin. Put plainly: biochemical. The following applies: read-out: Plasmin S-2251 (I50). The gist of the method: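 Inhibitor in 0.05M Tris-HCl buffer, pH 7.4, was incubated with human plasmin added at 0.2 casein unit/ml (stock) at 37° C for 4 minutes, then stopped with 50% acetic acid. I50 (μmol) is the inhibitor concentration giving half the absorbance obtained without inhibitor.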

In the next test the target is human plasma kallikrein (Homo sapiens, UniProt P03952). Put plainly: Anti-plasma kallikrein activity: inhibition of S-2302 decomposition. Type of test: biochemical. The following applies: Table 2; S-2302 substrate, pH 7.8, 37° C.; read-out: Plasma Kallikrein S-2302 (I50).
human plasma kallikrein, sequence (P03952 391-638 limits assumed): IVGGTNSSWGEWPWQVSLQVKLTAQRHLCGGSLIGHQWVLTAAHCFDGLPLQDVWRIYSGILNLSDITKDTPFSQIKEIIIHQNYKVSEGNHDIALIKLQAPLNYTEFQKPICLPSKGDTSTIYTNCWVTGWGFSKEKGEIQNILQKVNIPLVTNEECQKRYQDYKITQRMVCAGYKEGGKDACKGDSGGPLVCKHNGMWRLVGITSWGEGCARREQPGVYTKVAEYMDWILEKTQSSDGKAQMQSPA
human plasma kallikrein, sequence (P03952 20-390 partner limits assumed): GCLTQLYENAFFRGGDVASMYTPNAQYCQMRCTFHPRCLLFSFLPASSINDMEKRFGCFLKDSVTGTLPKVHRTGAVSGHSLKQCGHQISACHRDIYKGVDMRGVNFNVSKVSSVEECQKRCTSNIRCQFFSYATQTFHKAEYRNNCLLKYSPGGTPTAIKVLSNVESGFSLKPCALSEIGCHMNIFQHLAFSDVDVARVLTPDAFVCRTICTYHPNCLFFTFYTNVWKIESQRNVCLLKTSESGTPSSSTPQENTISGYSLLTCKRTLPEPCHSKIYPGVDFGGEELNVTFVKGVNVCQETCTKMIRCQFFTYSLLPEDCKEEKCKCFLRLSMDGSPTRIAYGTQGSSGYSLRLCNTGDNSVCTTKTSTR
[5] abbreviates: Table 2, S-2238 substrate, pH 8.3, 37° C., read-out: Thrombin S-2238 (I50).
[6] abbreviates: read-out: Thrombin Fibrinogen (I50), Table 2, concentration at which coagulation time of bovine fibrinogen is extended twice, pH 7.4, 37° C.
The mark [7] stands for this setting: Table 2, 50% inhibition concentration, S-2251 substrate, pH 7.4, 37° C.

T3 sequence (P00747 581-810 limits assumed): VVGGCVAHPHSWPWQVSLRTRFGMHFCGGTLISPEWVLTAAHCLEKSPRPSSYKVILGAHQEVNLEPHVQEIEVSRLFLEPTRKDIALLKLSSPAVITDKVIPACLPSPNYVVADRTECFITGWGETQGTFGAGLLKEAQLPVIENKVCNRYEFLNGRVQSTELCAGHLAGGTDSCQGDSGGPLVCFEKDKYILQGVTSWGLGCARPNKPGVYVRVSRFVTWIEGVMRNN
T3 sequence (P00747 97-580 partner limits assumed): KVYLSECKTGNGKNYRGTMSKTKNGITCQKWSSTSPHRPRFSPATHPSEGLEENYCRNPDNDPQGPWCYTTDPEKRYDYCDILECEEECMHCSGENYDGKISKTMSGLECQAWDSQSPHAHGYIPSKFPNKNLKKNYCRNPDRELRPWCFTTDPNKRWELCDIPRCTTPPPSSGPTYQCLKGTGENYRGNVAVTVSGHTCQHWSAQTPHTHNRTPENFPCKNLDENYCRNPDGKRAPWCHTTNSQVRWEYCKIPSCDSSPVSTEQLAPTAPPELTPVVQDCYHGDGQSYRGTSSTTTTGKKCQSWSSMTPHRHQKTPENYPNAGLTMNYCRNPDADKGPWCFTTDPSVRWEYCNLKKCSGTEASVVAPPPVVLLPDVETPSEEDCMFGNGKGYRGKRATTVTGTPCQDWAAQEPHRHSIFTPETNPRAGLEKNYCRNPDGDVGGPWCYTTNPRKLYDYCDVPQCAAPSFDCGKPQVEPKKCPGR

For the compound `NC[C@H]1CC[C@H](C(=O)NC(Cc2ccc(N)cc2)C(=O)Nc2ccc(C(=O)c3ccccc3)cc2)CC1` (stereo partly shown) [compound 33], the IC50 at bovine trypsin was 0.52 µM; against bovine thrombin [1] it was greater than 200 µM; at human plasmin [2], 12 µM; on bovine thrombin [3] (setting [5]), greater than 200 µM; on human urokinase, 11 µM; on human plasmin [4] it was 13 µM. Moreover, the IC50 on human plasma kallikrein came to 8.5 µM.

Turning to `NC[C@H]1CC[C@H](C(=O)N[C@@H](Cc2ccc(OCc3ccccc3)cc2)C(=O)Nc2cccc(Cl)c2)CC1` [compound 36], the IC50 is 0.82 µM on bovine trypsin; greater than 50 µM at bovine thrombin [1]; 0.41 µM at human plasmin [2]; greater than 125 µM against bovine thrombin [3]; 100 µM on human urokinase; 1.7 µM at human plasmin [4]. The IC50 on human plasma kallikrein is 1.2 µM.

With `CC1CCC(NC(=O)[C@H](Cc2ccc(OCc3ccccc3)cc2)NC(=O)c2ccc(CN)cc2)CC1` (stereo partly shown) [compound 38], the IC50 at bovine trypsin is 2.5 µM; on bovine thrombin [1], greater than 50 µM; at human plasmin [2], 0.41 µM; at bovine thrombin [3] (setting [5]), greater than 50 µM; at human urokinase it was greater than 400 µM; at human plasmin [4] it was 2.3 µM. Moreover, at human plasma kallikrein, the IC50 was found to be 60 µM.

For `NC[C@H]1CC[C@H](C(=O)N[C@@H](Cc2ccc(OCc3ccccc3)cc2)C(=O)Nc2cccc([N+](=O)[O-])c2)CC1` [compound 44], the IC50 on bovine trypsin was 1.1 µM; against bovine thrombin [1] it was greater than 100 µM; on human plasmin [2], 0.95 µM; on bovine thrombin [3] (setting [5]), greater than 500 µM; on human urokinase it was 60 µM; at human plasmin [4], 3.8 µM. In addition, the IC50 on human plasma kallikrein is 1.2 µM.

Consider `NC[C@H]1CC[C@H](C(=O)N[C@@H](Cc2ccc(OCc3ccccc3)cc2)C(=O)N2CCC(C(=O)c3ccccc3)CC2)CC1` [compound 48], for which the IC50 at bovine trypsin is 22 µM; at bovine thrombin [1], greater than 100 µM; on human plasmin [2], 3.4 µM; against bovine thrombin [3] it was greater than 200 µM; at human urokinase, greater than 200 µM; at human plasmin [4] it was 5.3 µM. In addition, at human plasma kallikrein, the IC50 is greater than 100 µM.

As for `CC(=O)c1ccc(NC(=O)[C@H](Cc2ccc(OCc3cccc([N+](=O)[O-])c3)cc2)NC(=O)[C@H]2CC[C@H](CN)CC2)cc1` [compound 54], the IC50 at bovine trypsin is 1 µM; on bovine thrombin [1], greater than 100 µM; at human plasmin [2] it was 0.19 µM; at bovine thrombin [3] (setting [5]) it was greater than 200 µM; at human urokinase, 35 µM; at human plasmin [4], 1 µM. Also, the IC50 on human plasma kallikrein was found to be 0.45 µM.

For `CC(=O)c1ccc(NC(=O)[C@H](Cc2ccc(OCc3cccc(C(F)(F)F)c3)cc2)NC(=O)[C@H]2CC[C@H](CN)CC2)cc1` [compound 55], the IC50 on bovine trypsin was 2.6 µM; against bovine thrombin [1], greater than 50 µM; on human plasmin [2], 0.29 µM; on bovine thrombin [3] (setting [5]), greater than 125 µM; on human urokinase, 57 µM; on human plasmin [4], 1.2 µM. Besides, on human plasma kallikrein, the IC50 came out at 0.42 µM.

For the compound `CC(=O)c1ccc(NC(=O)[C@H](Cc2ccc(OCc3cccc(F)c3)cc2)NC(=O)[C@H]2CC[C@H](CN)CC2)cc1` [compound 56], the IC50 on bovine trypsin was 1.2 µM; at bovine thrombin [1] it was greater than 100 µM; on human plasmin [2], 0.29 µM; on bovine thrombin [3] (setting [5]) it was 500 µM; at human urokinase, 46 µM; on human plasmin [4], 1.9 µM. The IC50 at human plasma kallikrein worked out at 0.76 µM.

On to `C=CCOc1ccc(C[C@H](NC(=O)[C@H]2CC[C@H](CN)CC2)C(=O)Nc2ccc(C(C)=O)cc2)cc1` [compound 57], for which the IC50 was 0.73 µM on bovine trypsin; greater than 500 µM on bovine thrombin [1]; 3.3 µM on human plasmin [2]; 730 µM at bovine thrombin [3] (setting [5]); 45 µM on human urokinase; 4.6 µM on human plasmin [4]. The IC50 on human plasma kallikrein was 1.4 µM.

For the compound `Cc1ccc(NC(=O)[C@H](Cc2ccc(OCc3ccccc3)cc2)NC(=O)[C@H]2CC[C@H](CN)CC2)cc1C` [compound 58], the IC50 on bovine trypsin was 1.3 µM; against bovine thrombin [1] it was greater than 50 µM; at human plasmin [2], 0.72 µM; at bovine thrombin [3] (setting [5]) it was greater than 125 µM; at human urokinase, greater than 150 µM; at human plasmin [4] it was 3.4 µM. Besides, the IC50 on human plasma kallikrein is 2.8 µM.

Turning to `NCc1ccc(C(=O)N[C@@H](Cc2ccc(OCc3ccccc3)cc2)C(=O)NC2CC3CCC2C3)cc1` (stereo partly shown) [compound 62], the IC50 at bovine trypsin is 2.4 µM; against bovine thrombin [1] it was greater than 100 µM; at human plasmin [2], 0.58 µM; on bovine thrombin [3] (setting [5]), greater than 200 µM; at human urokinase, greater than 500 µM; on human plasmin [4] it was 1.8 µM. Besides, at human plasma kallikrein, the IC50 is 8.3 µM.

For the compound `NC[C@H]1CC[C@H](C(=O)N[C@@H](Cc2ccc(OCc3ccccc3)cc2)C(=O)NC2CC3CCC2C3)CC1` (stereo partly shown) [compound 64], the IC50 at bovine trypsin was 1.1 µM; against bovine thrombin [1], greater than 250 µM; on human plasmin [2], 0.49 µM; against bovine thrombin [3] it was greater than 400 µM; at human urokinase it was 65 µM; on human plasmin [4], 2.5 µM. The IC50 on human plasma kallikrein was 2.3 µM.

Consider `NC[C@H]1CC[C@H](C(=O)N[C@@H](Cc2ccc(OCc3cccc(Cl)c3)cc2)C(=O)Nc2cccc(Cl)c2)CC1` [compound 66], for which the IC50 at bovine trypsin was 3.9 µM; at bovine thrombin [1] it was greater than 50 µM; at human plasmin [2], 0.092 µM; on bovine thrombin [3] (setting [5]), greater than 50 µM; at human urokinase, 350 µM; at human plasmin [4], 0.8 µM. For the same compound, at human plasma kallikrein, the IC50 turned out to be 0.54 µM.

Turning to `CC(=O)c1ccc(NC(=O)[C@H](Cc2ccc(OCc3ccncc3)cc2)NC(=O)[C@H]2CC[C@H](CN)CC2)cc1` [compound 68], the IC50 is 1 µM on bovine trypsin; greater than 500 µM on bovine thrombin [1]; 0.65 µM on human plasmin [2]; greater than 400 µM at bovine thrombin [3] (setting [5]); 25 µM on human urokinase; 1.2 µM at human plasmin [4]. In addition, the IC50 on human plasma kallikrein was 1.2 µM.

`CCOC(=O)C1CCCC(NC(=O)[C@H](Cc2ccc(OCc3cccc(Cl)c3)cc2)NC(=O)[C@H]2CC[C@H](CN)CC2)C1` (stereo partly shown) [compound 70]: the IC50 at bovine trypsin was 1.3 µM; at bovine thrombin [1] (setting [6]), greater than 50 µM; at human plasmin [2] it was 0.63 µM; at bovine thrombin [3] (setting [5]) it was 170 µM; on human urokinase, 82 µM; at human plasmin [4] (setting [7]), 1.7 µM. For the same compound, the IC50 at human plasma kallikrein was found to be 6.2 µM.

As to `CCOC(=O)C1CCCC(NC(=O)[C@H](Cc2ccc(OCc3cccc(Cl)c3)cc2)NC(=O)c2ccc(CN)cc2)C1` (stereo partly shown) [compound 72], the IC50 was 0.95 µM at bovine trypsin; greater than 25 µM at bovine thrombin [1] (setting [6]); 0.62 µM at human plasmin [2]; greater than 50 µM on bovine thrombin [3] (setting [5]); greater than 200 µM on human urokinase; 2.1 µM at human plasmin [4] (setting [7]). Besides, the IC50 on human plasma kallikrein was found to be 25 µM.

On to `NCc1ccc(C(=O)N[C@@H](Cc2ccc(OCc3ccccc3)cc2)C(=O)N2CCN(C(=O)c3ccccc3)CC2)cc1` [compound 73], for which the IC50 on bovine trypsin was 450 µM; against bovine thrombin [1], greater than 400 µM; at human plasmin [2] it was 210 µM; at bovine thrombin [3] (setting [5]) it was greater than 400 µM; on human urokinase it was greater than 200 µM; at human plasmin [4] it was 220 µM. Moreover, the IC50 on human plasma kallikrein is greater than 200 µM.

As for `CCOC(=O)c1cccc(NC(=O)[C@H](Cc2ccc(OCc3ccccc3)cc2)NC(=O)[C@H]2CC[C@H](CN)CC2)c1` [compound 75], the IC50 at bovine trypsin was 1.1 µM; against bovine thrombin [1], greater than 100 µM; at human plasmin [2] it was 0.88 µM; at bovine thrombin [3] (setting [5]), greater than 125 µM; on human urokinase it was 65 µM; on human plasmin [4] it was 5.6 µM. Besides, the IC50 on human plasma kallikrein was determined as 2.4 µM.

As for `NCc1ccc(C(=O)N[C@@H](Cc2ccc(OCc3ccccc3)cc2)C(=O)N2CCC(C(=O)c3ccccc3)CC2)cc1` [compound 76], the IC50 on bovine trypsin is 38 µM; against bovine thrombin [1], greater than 25 µM; on human plasmin [2], 2.4 µM; on bovine thrombin [3] (setting [5]) it was greater than 50 µM; on human urokinase it was greater than 250 µM; on human plasmin [4], 5.8 µM. Also, the IC50 on human plasma kallikrein is greater than 200 µM.
